Tests used:
[1] = target: T1, trypanothione synthetase of L. infantum (LiTryS) (Leishmania infantum, UniProt A4I2Z3); assay: TryS activity screening assay on recombinant LiTryS; assay type: biochemical; details: read-out: LiTryS activity [% at 30 μM]
Method in brief: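 N-His-tagged TryS from E. coli, purified by IMAC and SEC; end-point reaction with 150 μM ATP, 2 mM Spd, GSH 0.05 mM (TbTryS) or 0.25 mM (LiTryS), enzyme 3*10^−5 (TbTryS) or 2*10^−5 (LiTryS) μmol*min^-1*mL^-1. Stopped after 15 min with BIOMOL GREEN; A650 activity relative to blank-corrected DMSO control.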

[2] = Kinetic aqueous solubility by nephelometry; assay type: physicochemical; details: phosphate-buffered saline, aqueous buffer, kinetic from dmso stock, PBS pH 7.4, 1% DMSO, 25°C, logS = decadic logarithm of molar solubility [M]
Method: (§1) Phosphate-buffered saline pH 7.4 was prepared according to the European Pharmacopeia 10.4 by dissolving 2.38 g sodium monohydrogen phosphate dodecahydrate, 0.19 g potassium dihydrogen phosphate and 8.0 g sodium chloride in demineralised water (to a total volume of 1000 mL). The pH was adjusted to a value of 7.4 with hydrochloric acid. The buffer was filtered through a 0.45 μm membrane filter (Chromafil® Xtra PES-45/25) before use.
The kinetic aqueous solubility was determined by nephelometry. The measurements were performed on the NEPHELOstar Plus, with accompanying software Omega 5.11 and MARS 3.20 (BMG LABTECH, Ortenberg, Germany). Generally, 2 dilution series of 1–2 weighed portions of each substance were measured. First, stock solutions of the compounds were prepared in DMSO. A series of dilutions in DMSO were prepared from one stock solution to obtain at least 3 concentrations below and 3 concentrations above the precipitation point in the measured series. The specific concentrations were usually measured as duplicates.
The 96-well plate (Corning UV transparent flat-bottom 96-well plate, Corning Incorporated, Kennenbunk, ME, USA) was inspected for contamination and scratches and measured without samples prior to the solubility measurement of the compounds. 198 μL of phosphate-buffered saline pH 7.4 was placed in a 96 well plate for each well to be measured. 2 μL of a DMSO solution was added and immediately mixed by moving the pipette plunger. This solution either contained no substance—and served as a blank for the measurement (3 wells)—or the respective DMSO dilution of the substance (2–4 wells). The concentration of the solvent DMSO in each measured solution was 1%. The concentration of the compound corresponds to a 1:100 dilution compared to the respective DMSO dilution. The well plate bottom was cleaned with a lint-free cloth and compressed air and inspected for impurities before measurement. After shaking at 500 rpm for 10 s (double orbital), the measurement was carried out in the nephelometer with the laser intensity set to 80% and beam focus of 2.5 mm at a temperature of 25°C.
The obtained measuring points, relative nephelometric units (RNU) per compound concentration, were used to model two straight lines: one straight line with constant low readings and slope → 0 characterises the concentration range where no precipitation has taken place yet; The other straight line has a steep slope and increase of the RNU per concentration and characterises the concentrations at which precipitation takes place in the respective sample vessels.
The evaluation was carried out by calculating the two straight lines and their point of intersection. Outliers and values in a saturation range for the kick-off curve (usually >800 kRNU) were not used to create the straight lines and are listed separately in the evaluation file. […] The x-value of the intersection of the two straight lines represents the kinetic solubility. The results of two dilution series are additionally indicated as range (in brackets). For measurements of 3 or more series, a mean value with standard deviation is provided. The logS value describes the decadic logarithm of the molar solubility: logS (molar solubility [M]).

[3] = Thermodynamic aqueous solubility, shake-flask method and HPLC-UV; assay type: physicochemical; details: phosphate-buffered saline, aqueous buffer, thermodynamic from solid, PBS pH 7.4, 25°C, up to 72 h, HPLC-UV, logS of molar solubility [M]
Method: as §1
The thermodynamic aqueous solubility was determined by a miniaturised shake-flask method. […] A negative control with the buffer (400 μL) was incubated for every time point and measured likewise. After incubation for 24 h, 48 h and 72 h, the vials were checked for undissolved compound; then the filter plunger was punched into the vial for filtration. […] The calibration curve was obtained from at least three dilutions and five measuring points from a DMSO stock solution of the respective compound.

[4] = tested on: Crithidia fasciculata TryS (CfTryS); parameters: method as in ref 24–26 = [24]; 24 Stuhlmann F, Jäger T, Flohé L, Schinzer D, inventors. N 5 -substituted benzo[2,3]azepino[4,5- b ]indol-6-ones for treating tropical diseases. European Patent Office patent EP 1 757 607 A1. 2007 Feb || [25]; PMID 27070550; doi:10.1371/journal.pntd.0004617; 25 Benítez D , Medeiros A , Fiestas L , Panozzo-Zenere EA , Maiwald F , Prousis KC , et al . Identification of novel chemical scaffolds inhibiting trypanothione synthetase from pathogenic trypanosomat || [26]; PMID 32588679; doi:10.1080/14756366.2020.1780227; 26 Medeiros A , Benítez D , Korn RS , Ferreira VC , Barrera E , Carrión F , et al . Mechanistic and biological characterisation of novel N 5 -substituted paullones targeting the biosynthesis of trypan; details: cited from earlier work
[5] = tested on: trypanothione synthetase of T. b. brucei (TbTryS); parameters: method as in PMID 27070550; details: cited from earlier work
[6] = tested on: bloodstream form of T. b. brucei strain 427; parameters: method as in PMID 27070550; details: displayed for comparison, read-out: T. b. brucei (BS) [EC50; cited from earlier work
LiTryS = tested on: LiTryS; parameters: method as in ref 25, 26 = [25]; PMID 27070550; doi:10.1371/journal.pntd.0004617; 25 Benítez D , Medeiros A , Fiestas L , Panozzo-Zenere EA , Maiwald F , Prousis KC , et al . Identification of novel chemical scaffolds inhibiting trypanothione synthetase from pathogenic trypanosomat || [26]; PMID 32588679; doi:10.1080/14756366.2020.1780227; 26 Medeiros A , Benítez D , Korn RS , Ferreira VC , Barrera E , Carrión F , et al . Mechanistic and biological characterisation of novel N 5 -substituted paullones targeting the biosynthesis of trypan; details: versus substrates Spd, Gsp, ATP, GSH; cited from earlier work
[7] = target: T1, trypanothione synthetase of L. infantum (LiTryS); details: Fig 3, known paullones; cited from earlier work
[8] = tested on: L. infantum amastigotes (intracellular, in J774.A1 macrophages); assay: Viability assay for L. infantum amastigotes; assay type: cell-based; details: Leishmania infantum, J774.A1, 24 h, read-out: L. infantum amastigote viability [% at 20 μM]
Method in brief: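 Luciferase-expressing L. infantum metacyclic promastigotes (MHOM/MA/67/ITMAP263) infected J774.A1 murine macrophages at 1:10 for 24 h at 37 °C, 5% CO2. After compound treatment, a further 24 h incubation followed. Percent amastigote viability, in triplicate, was normalised to host-cell density by a propidium iodide correction factor.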

TryS = tested on: TryS; parameters: method as in Torrie et al. 18; details: ref Torrie et al. 18; cited from earlier work

T1 sequence (A4I2Z3 entry or part of it): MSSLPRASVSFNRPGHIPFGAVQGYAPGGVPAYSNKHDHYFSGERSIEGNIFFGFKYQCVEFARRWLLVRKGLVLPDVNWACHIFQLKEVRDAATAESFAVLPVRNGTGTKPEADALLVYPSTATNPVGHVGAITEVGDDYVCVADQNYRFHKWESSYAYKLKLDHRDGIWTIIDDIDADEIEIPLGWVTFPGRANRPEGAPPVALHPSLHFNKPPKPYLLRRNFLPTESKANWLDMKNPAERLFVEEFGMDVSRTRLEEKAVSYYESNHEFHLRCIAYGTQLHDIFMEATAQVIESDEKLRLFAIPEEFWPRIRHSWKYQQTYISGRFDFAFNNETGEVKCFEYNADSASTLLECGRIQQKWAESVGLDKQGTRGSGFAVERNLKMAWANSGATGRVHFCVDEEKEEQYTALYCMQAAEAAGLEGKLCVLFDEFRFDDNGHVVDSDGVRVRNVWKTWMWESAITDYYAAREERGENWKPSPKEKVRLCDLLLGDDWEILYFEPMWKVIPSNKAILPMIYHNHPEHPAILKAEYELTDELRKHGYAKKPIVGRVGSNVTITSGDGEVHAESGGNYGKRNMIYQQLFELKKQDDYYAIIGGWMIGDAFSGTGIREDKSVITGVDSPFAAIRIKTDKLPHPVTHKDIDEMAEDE

SMILES	activity at 30 µM [1]	solubility kinetic at 10 s [2]	solubility thermodynamic at 72 h [3]	viability at 20 µM [8]	other results
CON=C1CCC(=O)N(CC(=O)N2CCCC2)c2ccccc21 (mixture of isomers) [5c, (E/Z)-5-(Methoxyimino)-1-[2-oxo-2-(pyrrolidin-1-yl)ethyl]-1,3,4,5-tetrahydro-2H-benzo[b]azepin-2-one]	86.9 ± 3.6%	> 0.00398 M	0.0263 M	–	–
CNCCNC(=O)CN1C(=O)Cc2c([nH]c3ccc(Br)cc23)-c2ccccc21 [1b]	–	–	–	–	CfTryS inhibition at 10 μM compound concentration [4]: 92%
CNCCNC(=O)CN1C(=O)Cc2c([nH]c3ccc(Br)cc23)-c2ccc(Cl)cc21 [1c]	–	–	–	–	TbTryS activity [% at 30 μM] ([5]; 30 μM, displayed for comparison): 41.0 ± 6.0%; IC50 ([5]; used as inhibition control, read-out: concentration that inhibited 50% TryS activity (TbTryS)): 30 µM; EC50 [6]: 4.3 ± 0.7 µM; inhibition mechanism on LiTryS (LiTryS): competitive to Spd and Gsp, and uncompetitive to ATP and GSH
NCCNC(=O)CN1C(=O)Cc2c([nH]c3ccc(Br)cc23)-c2ccc(Cl)cc21 [1d]	–	–	–	–	IC50 [7]: 0.3 µM
O=C(CN1C(=O)CCCc2ccccc21)N1CCCC1 [2j, 1-[2-Oxo-2-(pyrrolidin-1-yl)ethyl]-1,3,4,5-tetrahydro-2H-benzo[b]-azepin-2-one]	100 ± 6.6%	> 0.00398 M	> 0.049 M	–	–
Cl.Cl.O=C(CN1C(=O)CCCc2ccccc21)NCCN1CCNCC1 [2o, 2-(2-Oxo-2,3,4,5-tetrahydro-1H-benzo[b]azepin-1-yl)-N-[2-(piperazin-1-yl)ethyl]acetamide dihydrochloride]	98.8 ± 18.7%	> 0.001 M	> 0.248 M	98.4 ± 11.8%	–
CC1(C)CCc2ccccc2N(CC(=O)NCCN2CCNCC2)C1=O.Cl.Cl [3d, 2-(3,3-Dimethyl-2-oxo-2,3,4,5-tetrahydro-1H-benzo[b]azepin-1-yl)-N-[2-(piperazin-1-yl)ethyl]acetamide dihydrochloride]	100 ± 5.1%	> 0.002 M	> 0.114 M	78.1 ± 14.4%	–
Cl.Cl.O=C(CN1C(=O)Cc2ccccc2-c2ccccc21)NCCN1CCNCC1 [4d, 2-(6-Oxo-6,7-dihydro-5H-dibenzo[b,d]azepin-5-yl)-N-[2-(piperazin-1-yl)ethyl]acetamide dihydrochloride]	99.5 ± 3.1%	> 0.0002 M	> 0.0562 M	89.5 ± 2.8%	–
CN1CCN(CCCN2c3ccccc3Sc3ccc(Cl)cc32)CC1 [prochlorperazine]	–	–	–	–	mode of TryS inhibition (TryS): Spd competitive behaviour
